In publication PMC6522510 (Nature Communications, 2019):
pEC50: −log10 of the molar value. Where two headings read alike, the source gives them in different places.

Assays:
U937 [1] = assay: Secondary dose-response HTS, Cell Titer Glo; format: cell-based, human; conditions: Homo sapiens, U-937; secondary high-throughput screen; U937; read-out: average effective concentration, U937
CHRF288-11 [2] = assay: Secondary dose-response HTS, Cell Titer Glo; format: cell-based, human; conditions: Homo sapiens, HTS; secondary high-throughput screen; CHRF288-11; read-out: average effective concentration, CHRF288-11
M07e [3] = assay: Secondary dose-response HTS, Cell Titer Glo; format: cell-based, human; conditions: Homo sapiens, M-07e, secondary high-throughput screen, read-out: average effective concentration, M07e
ML2 = assay: Secondary dose-response HTS, Cell Titer Glo; format: cell-based, human; conditions: Homo sapiens; secondary high-throughput screen; ML-2; read-out: average effective concentration, ML-2
MOLM-13 [4] = assay: cells; design: species or system AML cell lines (8); Secondary HTS, 10-point dose-response in triplicate, Cell Titer Glo viability, four-parameter fit EC50; conditions: Homo sapiens, MOLM-13, 72 h, read-out: MOLM-13
CMK [5] = assay: cells; design: species or system AML cell lines (8); Secondary HTS, 10-point dose-response in triplicate, Cell Titer Glo viability, four-parameter fit EC50; conditions: Homo sapiens, CMK, 72 h, read-out: CMK
MV4-11 [6] = assay: cells; design: species or system AML cell lines (8); Secondary HTS, 10-point dose-response in triplicate, Cell Titer Glo viability, four-parameter fit EC50; conditions: Homo sapiens, MV4-11, 72 h, read-out: MV4-11
CMS [7] = assay: Secondary dose-response HTS, Cell Titer Glo; format: cell-based, human; conditions: Homo sapiens, HTS, read-out: average effective concentration, CMS
CMK [8] = assay: Secondary dose-response HTS, Cell Titer Glo; format: cell-based, human; conditions: Homo sapiens, CMK, read-out: average effective concentration, CMK
CHRF288-11 [9] = assay: cells; design: species or system AML cell lines (8); Secondary HTS, 10-point dose-response in triplicate, Cell Titer Glo viability, four-parameter fit EC50; conditions: 72 h, read-out: CHRF288-11
U937 [10] = assay: cells; design: species or system AML cell lines (8); Secondary HTS, 10-point dose-response in triplicate, Cell Titer Glo viability, four-parameter fit EC50; conditions: Homo sapiens, U-937, 72 h, read-out: U937
MV4-11 [11] = tested on: MV4-11; design: species or system AML cell lines (8); Primary HTS, single concentration about 10 uM, Cell Titer Glo viability; log10 luminescence, per cent inhibition relative to cycloheximide control; conditions: 72 h, relative to cycloheximide control, log10 luminescence; inhibitor
CMS [12] = tested on: CMS; design: species or system AML cell lines (8); Primary HTS, single concentration about 10 uM, Cell Titer Glo viability; log10 luminescence, per cent inhibition relative to cycloheximide control; conditions: 72 h, relative to cycloheximide control, log10 luminescence; inhibitor
CMK [13] = tested on: CMK; design: species or system AML cell lines (8); Primary HTS, single concentration about 10 uM, Cell Titer Glo viability; log10 luminescence, per cent inhibition relative to cycloheximide control; conditions: 72 h, relative to cycloheximide control, log10 luminescence; inhibitor
M07e [14] = tested on: M07e; design: species or system AML cell lines (8); Primary HTS, single concentration about 10 uM, Cell Titer Glo viability; log10 luminescence, per cent inhibition relative to cycloheximide control; conditions: 72 h, relative to cycloheximide control, log10 luminescence; inhibitor
U937 [15] = tested on: U937; design: species or system AML cell lines (8); Primary HTS, single concentration about 10 uM, Cell Titer Glo viability; log10 luminescence, per cent inhibition relative to cycloheximide control; conditions: 72 h, relative to cycloheximide control, log10 luminescence; inhibitor
MOLM-13 [16] = tested on: MOLM-13; design: species or system AML cell lines (8); Primary HTS, single concentration about 10 uM, Cell Titer Glo viability; log10 luminescence, per cent inhibition relative to cycloheximide control; conditions: 72 h, relative to cycloheximide control, log10 luminescence; inhibitor
CHRF288-11 [17] = tested on: CHRF288-11; design: species or system AML cell lines (8); Primary HTS, single concentration about 10 uM, Cell Titer Glo viability; log10 luminescence, per cent inhibition relative to cycloheximide control; conditions: 72 h, relative to cycloheximide control, log10 luminescence; inhibitor
ML-2 = tested on: ML-2; design: species or system AML cell lines (8); Primary HTS, single concentration about 10 uM, Cell Titer Glo viability; log10 luminescence, per cent inhibition relative to cycloheximide control; conditions: 72 h, relative to cycloheximide control, log10 luminescence; inhibitor
MOLM-13 [18] = assay: Secondary dose-response HTS, Cell Titer Glo; format: cell-based, human; conditions: Homo sapiens; secondary high-throughput screen; MOLM-13; read-out: average effective concentration, MOLM-13
MV4-11 [19] = assay: Secondary dose-response HTS, Cell Titer Glo; format: cell-based, human; conditions: Homo sapiens; secondary high-throughput screen; MV4-11; read-out: average effective concentration, MV4-11
[20] = secondary high-throughput screen
[21] = secondary high-throughput screen, CMS

pEC50 (U937 [1])	pEC50 (MOLM-13 [4])	pEC50 (MV4-11 [6])	SMILES	pEC50 (CHRF288-11 [2])	pEC50 (M07e [3]; M07e)	pEC50 (ML2)	pEC50 (CMS [7])	pEC50 (CMK [8]; [20])	pEC50 (CMS [7]; [21])	also measured
5.77	< 5.00	< 5.00	C=C1CC[C@@H]2[C@](C)(CO)[C@H](O)CC[C@@]2(C)[C@@H]1C/C=C1/C(=O)OC[C@H]1O [ANDROGRAPHOLIDE]	5.07	5.00	5.42	5.24			pEC50 (CMK [5]): < 5.00
5.21	< 5.00	< 5.00	O=C(Nc1c[nH]nc1-c1nc2ccc(CN3CCOCC3)cc2[nH]1)NC1CC1 [AT9283]		7.05	5.18		6.72	6.72	pEC50 (CHRF288-11 [9]): < 5.00
6.00	< 5.00	< 5.00	COC(=O)[C@]12CCC(C)(C)C[C@H]1[C@H]1C(=O)C=C3[C@@]4(C)C=C(C#N)C(=O)C(C)(C)[C@@H]4CC[C@@]3(C)[C@]1(C)CC2 [BARDOXOLONE METHYL]	6.03	5.40	6.06		5.96	5.96	
	< 5.00	< 5.00	Nc1cc(F)ccc1NC(=O)c1ccc(CNC(=O)/C=C/c2cccnc2)cc1 [CHIDAMIDE]		5.82	5.06	5.00			pEC50 (CMK [8]): 6.60; pEC50 (CHRF288-11 [9]): < 5.00; pEC50 (U937 [10]): < 5.00
9.00	< 5.00	< 5.00	O=C(/C=C/c1ccc(CN(CCO)CCc2c[nH]c3ccccc23)cc1)NO [DACINOSTAT]	9.00	9.00	9.00		9.00	9.00	MV4-11 %inh (MV4-11 [11]): 78.77%; CMS %inh (CMS [12]): 111%; CMK %inh (CMK [13]): 120.3%; M07e %inh (M07e [14]): 149.6%; U937 %inh (U937 [15]): 87.23%; MOLM-13 %inh (MOLM-13 [16]): 102.9%; CHRF288-11 %inh (CHRF288-11 [17]): 161.9%; ML-2 %inh (ML-2): 65.79%
8.55	8.68	< 5.00	CC(C)C[C@H](NC(=O)[C@@H](NC(=O)c1cccc(-c2ccccc2)n1)[C@@H](C)O)B(O)O [DELANZOMIB]	8.57	9.00	9.00		8.82	9.00	
6.85			COc1cccc2c1C(=O)c1c(O)c3c(c(O)c1C2=O)C[C@@](O)(C(=O)CO)C[C@@H]3O[C@H]1C[C@H](N)[C@H](O)[C@H](C)O1 [DOXORUBICIN]	6.89	6.64	6.36			6.13	pEC50 (MOLM-13 [18]): 7.44; pEC50 (MV4-11 [19]): 7.29; pEC50 (CMK [5]): < 5.00; pEC50 (CHRF288-11 [9]): 6.87
5.25	< 5.00	< 5.00	Nc1ccccc1NC(=O)c1ccc(CNC(=O)OCc2cccnc2)cc1 [ENTINOSTAT]	5.39	6.00	5.21		6.96	6.12	
5.37			COc1cc([C@@H]2c3cc4c(cc3[C@@H](O[C@@H]3O[C@@H]5CO[C@@H](C)O[C@H]5[C@H](O)[C@H]3O)[C@H]3COC(=O)[C@H]23)OCO4)cc(OC)c1O [ETOPOSIDE]	5.44	5.77	6.15			< 5.00	pEC50 (MOLM-13 [18]): 5.68; pEC50 (MV4-11 [19]): 6.17; pEC50 (CMK [5]): < 5.00
6.03	< 5.00	< 5.00	Cc1cc(Nc2cc(CN3CCOCC3)c3nc(C)c(Cc4ccc(Cl)cc4F)n3n2)n[nH]1 [GANDOTINIB]	7.16	5.52	5.03	6.44			pEC50 (CMK [5]): < 5.00
7.26	< 5.00	< 5.00	CCN(CC)Cc1ccc2cc(COC(=O)Nc3ccc(C(=O)NO)cc3)ccc2c1 [GIVINOSTAT]	7.21	7.51	7.15		8.43	7.07	
9.00	< 5.00	< 5.00	NS(=O)(=O)OC[C@@H]1C[C@@H](n2ccc3c(N[C@H]4CCc5ccccc54)ncnc32)C[C@@H]1O [MLN 4924]	7.74	6.85	9.00	7.00			pEC50 (CMK [8]): 9.00
5.96	< 5.00	< 5.00	Nc1ccccc1NC(=O)c1ccc(CNc2nccc(-c3cccnc3)n2)cc1 [MOCETINOSTAT]	6.77	6.85	6.39		7.41	6.92	
5.68	< 5.00	< 5.00	C=C1C(=O)O[C@H]2[C@H]1CC/C(C)=C/CC[C@@]1(C)O[C@@H]21 [PARTHENOLIDE]	5.80	5.00	6.04	5.92			pEC50 (CMK [8]): 5.68
6.66	< 5.00	< 5.00	CCCCc1nc2cc(/C=C/C(=O)NO)ccc2n1CCN(CC)CC [PRACINOSTAT]	6.60	6.89	6.48	6.85			pEC50 (CMK [8]): 7.15
5.00			CN1CCC(CNc2ccc3ncc(-c4cccc(OC(F)(F)F)c4)n3n2)CC1 [SGI-1776]	< 5.00	< 5.00	< 5.00	< 5.00			pEC50 (MOLM-13 [18]): 5.80; pEC50 (MV4-11 [19]): 6.00; pEC50 (CMK [5]): < 5.00
7.21	< 5.00	< 5.00	O=C1NC(=O)[C@@H](c2cn3c4c(cccc24)CCC3)[C@@H]1c1c[nH]c2ccccc12 [TIVANTINIB]	5.44	6.11	7.26		7.12	5.82	

SMILES	pEC50 (U937 [1])	pEC50 (MOLM-13 [4])	pEC50 (MV4-11 [6])	pEC50 (CHRF288-11 [2])	pEC50 (M07e [3]; M07e)	pEC50 (ML2)	pEC50 (CMS [7])	pEC50 (CMK [8]; [20])	pEC50 (CMS [7]; [21])	also measured
Cc1ccc2nc(NCCN)c3ncc(C)n3c2c1 [BMS-345541]	5.64	< 5.00	< 5.00	5.42		5.66		5.33	5.23	pEC50 (M07e [3]; […]): 5.21
Oc1ccc(C2=Cc3ccc(O)cc3OC2)cc1 [IDRONOXIL]	5.72	< 5.00	< 5.00	6.74		6.89		7.06	6.36	pEC50 (M07e [3]; […]): 5.89
